Assay results: publication PMC4336630 (Molecular cell, 2015)
“Also recorded” adds a separate entry of the source.

Key:
[1] = test system: Nc1nc2c(ncn2[C@@H]2O[C@H](COP(=O)(O)O)[C@@H](O)[C@H]2O)c(=O)[nH]1; assay: purified protein, by the assay type; conditions: 25.0 °C
[2] = test system: Klebsiella pneumoniae GMK; type: biochemical
E. coli GMK [3] = target: T1, E. coli GMK (Escherichia coli, UniProt P60546); type: binding
L. monocytogenes GMK [4] = target: T2, L. monocytogenes GMK (Listeria monocytogenes serovar 1/2a, UniProt Q8Y672); assay: biochemical
S. mutans GMK [5] = target: T3, S. mutans GMK (Streptococcus mutans serotype c, UniProt Q8DVK6)
S. aureus GMK [6] = target: T4, S. aureus GMK (Staphylococcus aureus, UniProt P99176); assay: biochemical
D. radiodurans GMK [7] = target: T5, D. radiodurans GMK (Deinococcus radiodurans, UniProt Q9RS38); assay: biochemical
[8] = test system: GMK of Rhodobacter sphaeroides; type: biochemical
Pseudomonas syringae GMK = type: biochemical
B. subtilis GMK [9] = target: T6, B. subtilis GMK (Bacillus subtilis, UniProt O34328)
E. faecalis GMK-2 [10] = target: T7, E. faecalis GMK-2 (Enterococcus faecalis, UniProt Q831B6); type: biochemical
Coxiella burnetii GMK = Coxiella burnetii GMK (Coxiella burnetii, UniProt Q83EL7); type: biochemical
B. anthracis GMK [11] = target: T8, B. anthracis GMK (Bacillus anthracis, UniProt Q81WG7); assay: biochemical
[12] = test system: chimeric E. coli GMKs with S. aureus lid domains; type: biochemical
S. coelicolor GMK [13] = target: T9, S. coelicolor GMK (Streptomyces coelicolor, UniProt Q9KXS0)
[14] = test system: Chimeric S. aureus GMKs with E. coli lid domains; type: biochemical
[15] = test system: Neisseria meningitidis GMK; type: biochemical
S. mutans GMK [16] = target: T3, S. mutans GMK; assay: biochemical
E. faecalis GMK-1 = E. faecalis GMK-1 (Enterococcus faecalis, UniProt Q82ZD5); type: biochemical
S. meliloti GMK [17] = target: T10, S. meliloti GMK (Sinorhizobium meliloti, UniProt Q92QZ2)
B. subtilis GMK [18] = target: T6, B. subtilis GMK; type: binding
B. subtilis GMK [19] = target: T6, B. subtilis GMK; assay: biochemical
T. thermophilus GMK [20] = target: T11, T. thermophilus GMK (Thermus thermophilus, UniProt Q5SI18)
E. coli GMK [21] = target: T1, E. coli GMK; type: biochemical
C. gilvus GMK [22] = target: T12, C. gilvus GMK (Cellulomonas gilvus, UniProt F8A6C8)
C. gilvus GMK [23] = target: T12, C. gilvus GMK; assay: biochemical
L. monocytogenes GMK [24] = target: T2, L. monocytogenes GMK
B. anthracis GMK [25] = target: T8, B. anthracis GMK
D. radiodurans GMK [26] = target: T5, D. radiodurans GMK
[27] = test system: Yersinia enterocolitica GMK; type: biochemical
T. thermophilus IMPDH = conditions: cited from earlier work
B. subtilis GMK Y77F = B. subtilis GMK Y77F (Bacillus subtilis, UniProt O34328, Y77F); type: biochemical
M. tuberculosis GMK = M. tuberculosis GMK (Mycobacterium tuberculosis, UniProt P9WKE9); type: biochemical
S. meliloti GMK [28] = target: T10, S. meliloti GMK; assay: biochemical
S. coelicolor GMK [29] = target: T9, S. coelicolor GMK; assay: biochemical
T. thermophilus GMK [30] = target: T11, T. thermophilus GMK; assay: biochemical
S. aureus GMK [31] = target: T4, S. aureus GMK
A. tumefaciens GMK = A. tumefaciens GMK (Agrobacterium tumefaciens, UniProt Q8UGD7); type: biochemical
E. faecalis GMK-2 [32] = target: T7, E. faecalis GMK-2; conditions: cited from earlier work

“L. monocytogenes GMK (Listeria monocytogenes EGD-e)” showed a Km [1] of 84.7 ± 14.2 µM and a kcat [1] of 54.9 ± 5.6 s⁻¹.

In the case of “B. subtilis GMK (Bacillus subtilis subsp. subtilis str. 168)”, the Km [1] is reported as 24.6 ± 3.4 µM and the kcat [1] is reported as 23 ± 1 s⁻¹.

Work on “T. thermophilus GMK (Thermus thermophilus HB8)” yielded a Km [1] of 17.5 ± 4.1 µM and a kcat [1] of 4.8 ± 0.4 s⁻¹.

In the case of “S. aureus GMK (Staphylococcus aureus subsp. aureus N315)”, the Km [1] is reported as 35.1 ± 7.1 µM and the kcat [1] is reported as 72.9 ± 7.2 s⁻¹.

“S. mutans GMK (Streptococcus mutans UA159)” showed a Km [1] of 147.4 ± 68.6 µM and a kcat [1] of 68.9 ± 24.8 s⁻¹.

Work on “D. radiodurans GMK (Deinococcus radiodurans R1 = ATCC 13939 = DSM 20539)” yielded a Km [1] of 17.8 ± 5.4 µM and a kcat [1] of 44.5 ± 4.4 s⁻¹.

For `Nc1nc2c(ncn2[C@@H]2O[C@H](COP(=O)(O)OP(=O)(O)OP(=O)(O)O)[C@@H](OP(=O)(O)OP(=O)(O)O)[C@H]2O)c(=O)[nH]1` [pppGpp, guanosine pentaphosphate], the “Inhibition of GMK activity (sensitivity)” value [2] was “completely resistant”, the “Binding by ITC” value (E. coli GMK [3]) was “not observed” and the IC50 (L. monocytogenes GMK [4]) was 9 to 24 µM. The Ki (L. monocytogenes GMK [4]) was 12 ± 1.1 µM, the Mode of inhibition (S. mutans GMK [5]) was “Comp” and the IC50 (S. aureus GMK [6]) was 9 to 24 µM. The Ki (S. aureus GMK [6]) was 7 µM, the Ki (D. radiodurans GMK [7]) was 1600 ± 400 nM and the “Inhibition of GMK activity (sensitivity)” value [8] was “resistant”. For the same compound, the “Inhibition of GMK activity (sensitivity)” value (Pseudomonas syringae GMK) was “completely resistant”, the Mode of inhibition (B. subtilis GMK [9]) was “Comp” and the Ki (E. faecalis GMK-2 [10]) was 355 ± 26 µM. The Mode of inhibition (E. faecalis GMK-2 [10]) was “noncompetitively inhibited; also recorded: Noncomp”, the “Inhibition of GMK activity (sensitivity)” value (Coxiella burnetii GMK) was “completely resistant” and the IC50 (B. anthracis GMK [11]) was about 120 µM. The Ki (B. anthracis GMK [11]) was 42.5 ± 7.3 µM, the “Inhibition of GMK activity (sensitivity)” value [12] was “still resistant” and the Mode of inhibition (S. coelicolor GMK [13]) was “competitively inhibited and Comp”. For the same compound, the “Inhibition of GMK activity (sensitivity)” value [14] was “more resistant”, the “Inhibition of GMK activity (sensitivity)” value [15] was “completely resistant” and the IC50 (S. mutans GMK [16]) was 9 to 24 µM. The Ki (S. mutans GMK [16]) was 16.6 ± 2.4 µM, the Mode of inhibition (E. faecalis GMK-1) was “Comp” and the Mode of inhibition (S. meliloti GMK [17]) was “modestly and competitively inhibited and Comp”. The “Complex formation (binding) by ITC” value (B. subtilis GMK [18]) was “detected”, the IC50 (B. subtilis GMK [19]) was about 16 µM and the Mode of inhibition (T. thermophilus GMK [20]) was “strongly and competitively inhibited and Comp”. The “Inhibition of GMK activity (sensitivity)” value (E. coli GMK [21]) was “completely resistant”, the Mode of inhibition (C. gilvus GMK [22]) was “competitively inhibited and Comp” and the Ki (C. gilvus GMK [23]) was 1700 ± 500 nM. The Mode of inhibition (L. monocytogenes GMK [24]) was “Comp”, the Mode of inhibition (B. anthracis GMK [25]) was “Comp” and the Mode of inhibition (D. radiodurans GMK [26]) was “strongly and competitively inhibited and Comp”. For the same compound, the “Inhibition of GMK activity (sensitivity)” value [27] was “completely resistant”, the Ki (T. thermophilus IMPDH) was about 11 µM and the “Ki of the variant (in words)” value (B. subtilis GMK Y77F) was “increased Ki to a level comparable to that of B. anthracis GMK”. The “Inhibition of GMK activity (sensitivity)” value (M. tuberculosis GMK) was “insensitive”, the Ki (S. meliloti GMK [28]) was 81.6 ± 11.8 µM and the Ki (S. coelicolor GMK [29]) was 61.5 ± 9.6 µM. The Ki (T. thermophilus GMK [30]) was 2900 ± 500 nM, the Mode of inhibition (S. aureus GMK [31]) was “competitively inhibits and Comp” and the Ki (A. tumefaciens GMK) was 53.5 ± 8.9 µM. For the same compound, the Mode of inhibition (A. tumefaciens GMK) was “modestly and competitively inhibited and Comp” and the IC50 (E. faecalis GMK-2 [32]) was about 460 µM.

With `Nc1nc2c(ncn2[C@@H]2O[C@H](COP(=O)(O)OP(=O)(O)O)[C@@H](OP(=O)(O)OP(=O)(O)O)[C@H]2O)c(=O)[nH]1` [ppGpp, guanosine tetraphosphate] the Ki (S. aureus GMK [6]) was 8.2 µM, the “Inhibition of GMK activity (sensitivity)” value (E. coli GMK [21]) was “resistant” and the Mode of inhibition (S. aureus GMK [31]) was “competitively inhibits”.

B. anthracis GMK (Bacillus anthracis) showed a Km [1] of 78.1 ± 39.7 µM and a kcat [1] of 57.6 ± 21.9 s⁻¹.

Work on “S. meliloti GMK (Sinorhizobium meliloti 1021)” yielded a Km [1] of 14.1 ± 1.3 µM and a kcat [1] of 19.5 ± 0.3 s⁻¹.

“C. gilvus GMK (Cellulomonas gilvus ATCC 13127)” gave a Km [1] of 22.5 ± 7.3 µM and a kcat [1] of 25 ± 2.7 s⁻¹.

With “S. coelicolor GMK (Streptomyces coelicolor A3(2))” the Km [1] was 29.7 ± 3.4 µM and the kcat [1] was 25.5 ± 0.7 s⁻¹.
